The target of one experiment is T1, FSHR (Homo sapiens, UniProt P23945).
T1 construct: expressed in transfected cells; host or cells: CHO (Cho-FSHR-LUC-1-1-43)
T1 sequence (P23945 18-695): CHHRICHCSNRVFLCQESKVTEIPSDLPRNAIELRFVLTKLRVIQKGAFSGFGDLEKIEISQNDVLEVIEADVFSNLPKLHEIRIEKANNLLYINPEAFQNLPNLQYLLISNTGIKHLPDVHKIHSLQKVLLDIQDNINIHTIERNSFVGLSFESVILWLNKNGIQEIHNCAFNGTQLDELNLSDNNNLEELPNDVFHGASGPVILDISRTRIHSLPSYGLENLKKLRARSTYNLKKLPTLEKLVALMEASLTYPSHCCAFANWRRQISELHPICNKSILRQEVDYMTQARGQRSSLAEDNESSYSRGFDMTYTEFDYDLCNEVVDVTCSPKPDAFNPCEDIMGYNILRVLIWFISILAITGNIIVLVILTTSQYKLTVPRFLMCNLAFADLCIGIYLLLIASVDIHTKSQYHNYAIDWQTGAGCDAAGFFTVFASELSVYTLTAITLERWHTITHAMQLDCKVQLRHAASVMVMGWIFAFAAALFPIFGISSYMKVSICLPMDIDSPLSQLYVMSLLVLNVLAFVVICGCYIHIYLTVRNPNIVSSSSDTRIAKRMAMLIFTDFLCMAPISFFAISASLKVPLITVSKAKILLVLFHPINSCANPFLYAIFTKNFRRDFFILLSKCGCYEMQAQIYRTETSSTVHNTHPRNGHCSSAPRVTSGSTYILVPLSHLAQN
The experiment in a line: EC50 of cyclic AMP production in CHO FSHR cells + EC20 FSH (Assay A). The class given is cell-based. To be noted: CHO-FSHR-LUC cells, 0.265 pM FSH (EC20), cAMP HTRF, 1 h. As for the experimental part:
EC50 of Cyclic AMP Production in CHO FSHR Cells+EC20 FSH (Assay A)
2500 Cho-FSHR-LUC-1-1-43 cells were plated per well in 5 μl of phenol red free DMEM/F12+1% FBS. Cells were plated in 384 well, solid white low volume plates (Greiner 784075) by Multidrop. Cells were assayed by adding 100 μl of 2×EC20 FSH/IBMX in DMEM/F12+0.1% BSA) by Multidrop to 2 μl of test compound stamped in 384 well plates (compounds are diluted 1:50). The final FSH concentration was 0.265 pM, and the final IBMX concentration was 200 μM. The compound plate map was as follows: Column 1: 2 μl of DMSO; Column 2: 2 μl of DMSO; Columns 3-12 and 13-24: 2 μl of test compound, diluted 1:4 in 100% DMSO, or 2 μl of FSH, diluted 1:4 in DMEM/F12+0.1% BSA. The starting concentration for FSH was 50 nM (final concentration was 0.5 nM). Furthermore, Column 23 contained 2 μl of EC100 FSH reference (100×) (diluted in DMEM/F12+0.1% BSA) at a final concentration of 0.5 nM, and Column 24 contained 2 μl of 1 mM AS707664/2 reference compound 2. 5 μl of compound+EC20 FSH mixture were transferred to cell plates (1:2 dilution into 5 μl of cell media). The plates were incubated at 37° C. for 1 h. 10 μl of mixed HTRF (CisBio #62AM4PEC) reagents were added per well and incubated at room temperature for 1 h. The plates were read on Envision using the cAMP HTRF—low volume 384 well protocol. The readout was the calculated fluorescence ratio (665 nm/620 nm).
Background: Time-resolved FRET reads energy transfer from a long-lived donor to a nearby acceptor.

Experiment [1] deals with T2, follicle-stimulating hormone (FSH) receptor (Rattus norvegicus, UniProt P20395).
T2 construct: endogenous in cells; host or cells: rat granulosa cells
T2 sequence (P20395 18-692): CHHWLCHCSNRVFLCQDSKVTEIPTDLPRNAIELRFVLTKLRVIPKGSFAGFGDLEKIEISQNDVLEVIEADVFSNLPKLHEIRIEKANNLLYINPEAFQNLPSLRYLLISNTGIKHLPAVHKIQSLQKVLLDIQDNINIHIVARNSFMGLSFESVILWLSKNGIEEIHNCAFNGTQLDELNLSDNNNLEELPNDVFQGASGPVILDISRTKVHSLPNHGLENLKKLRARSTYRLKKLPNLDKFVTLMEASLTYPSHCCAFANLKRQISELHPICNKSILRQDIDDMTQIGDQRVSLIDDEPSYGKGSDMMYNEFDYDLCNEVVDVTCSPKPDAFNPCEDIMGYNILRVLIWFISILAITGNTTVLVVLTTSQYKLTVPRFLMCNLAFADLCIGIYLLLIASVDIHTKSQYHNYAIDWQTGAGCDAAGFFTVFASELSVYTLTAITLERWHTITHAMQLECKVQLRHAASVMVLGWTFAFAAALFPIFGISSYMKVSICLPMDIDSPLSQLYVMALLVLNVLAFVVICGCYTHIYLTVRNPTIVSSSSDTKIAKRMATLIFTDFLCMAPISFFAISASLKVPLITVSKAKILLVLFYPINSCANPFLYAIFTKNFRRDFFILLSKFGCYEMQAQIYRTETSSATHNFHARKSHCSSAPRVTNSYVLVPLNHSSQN
The experiment in a line: Rat granulosa EC50 FSH (Assay B). In kind it is cell-based. The following applies: rat granulosa cells; for EC50: per Yanofsky et al. 2006. How it is done: Rat Granulosa EC50 FSH (Assay B)
The assay was performed pursuant to the teaching of Yanofsky et al. (2006) Allosteric activation of the follicle-stimulating hormone (FSH) receptor by selective, nonpeptide agonists. JBC 281(19): 13226-13233, which is incorporated by reference in the disclosure of the invention.

The term EC50 denotes the midpoint of the concentration-response curve. For the compound `COc1ccc(C2=NN(C(=O)c3ccc4c(c3)OCO4)C(C)(C)C2)cc1OC` [Compound 131, [1,3]Dioxol-5-yl-[3-(3,4-dimethoxy-phenyl)-5,5-dimethyl-4,5-dihydro-pyrazol-1-yl]-methanone], the EC50 at FSHR amounted to 23 µM; in experiment [1] it was 0.413 µM.

In the case of `COc1ccc(C2=NN(C(=O)c3ccc(Oc4ccccc4)cc3)C(C)(C)C2)cc1OC` [Compound 230, [3-(3,4-Dimethoxy-phenyl)-5,5-dimethyl-4,5-dihydro-pyrazol-1-yl]-(4-phenoxy-phenyl)-methanone], the EC50 on FSHR was determined as 2.2 µM; in experiment [1], 0.128 µM.

`COc1ccc(C2=NN(C(=O)c3cccc(F)c3)CC2)cc1OC` [Compound 1]: the concentration giving a half-maximal response (EC50) on FSHR stood at 16.7 µM; in experiment [1], 0.878 µM.

Consider `COc1ccc(C2=NN(C(=O)c3cccc(C(F)(F)F)c3)CC2)cc1OC` [Compound 64], for which the concentration giving a half-maximal response (EC50) on FSHR turned out to be 11 µM; in experiment [1], 0.348 µM.

`COc1ccc(C2=NN(C(=O)c3ccc(F)c(C(F)(F)F)c3)C(C)(C)C2)cc1OC` [Compound 236, [3-(3,4-Dimethoxy-phenyl)-5,5-dimethyl-4,5-dihydro-pyrazol-1-yl]-(4-fluoro-3-trifluoromethyl-phenyl)-methanone]: the values for the EC50 (at FSHR; in experiment [1]) were 25.3 µM and 1.73 µM, respectively.

For the compound `COc1ccc(C2=NN(C(=O)c3cccc(Oc4ccccc4)c3)CC2)cc1OC` [Compound 70], the figures for the EC50 (at FSHR; in experiment [1]) were 39 µM and 0.11 µM, respectively.

`COc1ccc(C2=NN(C(=O)c3cccc(F)c3)C(C)(C)C2)cc1OC` [Compound 129, [3-(3,4-Dimethoxy-phenyl)-5,5-dimethyl-4,5-dihydro-pyrazol-1-yl]-(3-fluoro-phenyl)-methanone]: the concentration for a half-maximal effect (EC50) at FSHR came out at 35 µM; in experiment [1], 0.363 µM.

Consider `COc1ccc(C2=NN(C(=O)c3cccc(Br)c3)C(C)(C)C2)cc1OC` [Compound 233, (3-Bromo-phenyl)-[3-(3,4-dimethoxy-phenyl)-5,5-dimethyl-4,5-dihydro-pyrazol-1-yl]-methanone], for which the EC50 on FSHR was 27.8 µM; in experiment [1] it was 0.216 µM.

For the compound `COc1ccc(C2=NN(C(=O)c3cccc(F)c3F)CC2)cc1OC` [Compound 77], the half-maximal effective concentration (EC50) was found to be 8.61 µM at FSHR and 0.729 µM in experiment [1].

`COc1ccc(C2=NN(C(=O)c3cccc(Cl)c3)CC2)cc1OC` [Compound 62]: the half-maximal effective concentration (EC50) turned out to be 6.49 µM at FSHR and 0.0981 µM in experiment [1].

As for `COc1ccc(C2=NN(C(=O)c3ccc(C)cc3)C(C)(C)C2)cc1OC` [Compound 235, [3-(3,4-Dimethoxy-phenyl)-5,5-dimethyl-4,5-dihydro-pyrazol-1-yl]-p-tolyl-methanone], the EC50 at FSHR came to 35.7 µM; in experiment [1], 0.538 µM.

Regarding `COc1ccc(C2=NN(C(=O)c3cccc(C(F)(F)F)c3)C(C)(C)C2)cc1OC` [Compound 234, [3-(3,4-Dimethoxy-phenyl)-5,5-dimethyl-4,5-dihydro-pyrazol-1-yl]-(3-trifluoromethyl-phenyl)-methanone], the 50% effective concentration (EC50) at FSHR was determined as 22.4 µM; in experiment [1] it was 0.699 µM.

As for `COc1ccc(-c2ccn(C(=O)c3ccc4c(c3)OCO4)n2)cc1OC` [Compound 148], the figures for the EC50 (on FSHR; in experiment [1]) were 2.88 µM and 3.4 µM, respectively.

As to `COc1ccc(C2=NN(C(=O)c3cccc(C#N)c3)C(C)(C)C2)cc1OC` [Compound 132, 3-[3-(3,4-Dimethoxy-phenyl)-5,5-dimethyl-4,5-dihydro-pyrazole-1-carbonyl]-benzonitrile], the concentration for a half-maximal effect (EC50) came out at 41.5 µM on FSHR and 0.025 µM in experiment [1].

Take `COc1ccc(C2=NN(C(=O)c3cc(F)c(F)c(F)c3F)CC2)cc1OC` [Compound 80]: the results for the half-maximal effective concentration (EC50) (at FSHR; in experiment [1]) were 28 µM and 1.19 µM, respectively.

Consider `COc1ccc(C2=NN(C(=O)c3cccc(OC(C)(F)F)c3)CC2)cc1OC` [Compound 67], for which the values for the concentration giving a half-maximal response (EC50) (at FSHR; in experiment [1]) were 21 µM and 0.814 µM, respectively.

`COc1ccc(C2=NN(C(=O)c3ccc(F)c(Cl)c3)C(C)(C)C2)cc1OC` [Compound 237, (3-Chloro-4-fluoro-phenyl)-[3-(3,4-dimethoxy-phenyl)-5,5-dimethyl-4,5-dihydro-pyrazol-1-yl]-methanone]: the concentration giving a half-maximal response (EC50) was determined as 35 µM on FSHR and 0.598 µM in experiment [1].

As for `COc1ccc(C2=NN(C(=O)c3cccc(OC(F)(F)F)c3)C(C)(C)C2)cc1OC` [Compound 231, [3-(3,4-Dimethoxy-phenyl)-5,5-dimethyl-4,5-dihydro-pyrazol-1-yl]-(3-trifluoromethoxy-phenyl)-methanone], the figures for the EC50 (at FSHR; in experiment [1]) were 23.8 µM and 1.15 µM, respectively.

Turning to `COc1ccc(C2=NN(C(=O)[C@@H](OC)c3ccccc3)CC2)cc1OC` [Compound 292], at FSHR, the concentration giving a half-maximal response (EC50) was 29 µM. Further, in experiment [1] (meaning of % not stated), the “Assay B: value given in % (rat granulosa)” value was 186.00%.

The values are drawn from patent US9517227B2, “Dihydropyrazoles” (Merck Patent GmbH, priority 2011, dated 2016).
